In the NIST ThermoML archive (doi:10.1016/j.tca.2015.08.013):
± gives the expanded uncertainty stated by the source.

Conditions: for mass density / kinematic viscosity / speed of sound / vapor or sublimation pressure: Liquid; for mass density: Vibrating tube method; for kinematic viscosity / speed of sound: 101.33 kPa; for kinematic viscosity: Capillary tube (Ostwald / Ubbelohde) method; for speed of sound: Sing-around technique in a fixed-path interferometer; for vapor or sublimation pressure: Ebulliometric method (Recirculating still); for surface tension liquid-gas: Drop volume

Cc1ccc(C)o1 [2,5-dimethylfuran]
Conditions | mass density [kg/m3]
313.15 K, 100 kPa | 879.93 ± 0.29
313.15 K, 2500 kPa | 882.45 ± 0.3
313.15 K, 5000 kPa | 885.02 ± 0.31
313.15 K, 7500 kPa | 887.51 ± 0.31
313.15 K, 10000 kPa | 889.95 ± 0.32
313.15 K, 20000 kPa | 899.05 ± 0.35
313.15 K, 30000 kPa | 907.41 ± 0.37
313.15 K, 40000 kPa | 915.12 ± 0.39
313.15 K, 50000 kPa | 922.3 ± 0.4
313.15 K, 60000 kPa | 928.9 ± 0.41
315.65 K, 99 kPa | 877.195 ± 0.23
318.15 K, 99 kPa | 874.437 ± 0.23
318.15 K, 100 kPa | 874.44 ± 0.29
318.15 K, 2500 kPa | 877.03 ± 0.3
318.15 K, 5000 kPa | 879.68 ± 0.31
318.15 K, 7500 kPa | 882.27 ± 0.31
318.15 K, 10000 kPa | 884.79 ± 0.32
318.15 K, 20000 kPa | 894.18 ± 0.35
318.15 K, 30000 kPa | 902.74 ± 0.37
318.15 K, 40000 kPa | 910.6 ± 0.39
318.15 K, 50000 kPa | 917.91 ± 0.41
318.15 K, 60000 kPa | 924.74 ± 0.42
320.65 K, 99 kPa | 871.651 ± 0.23
323.15 K, 99 kPa | 868.85 ± 0.23
323.15 K, 100 kPa | 868.85 ± 0.29
323.15 K, 2500 kPa | 871.55 ± 0.3
323.15 K, 5000 kPa | 874.3 ± 0.31
323.15 K, 7500 kPa | 876.94 ± 0.32
323.15 K, 10000 kPa | 879.54 ± 0.32
323.15 K, 20000 kPa | 889.25 ± 0.35
323.15 K, 30000 kPa | 898.07 ± 0.38
323.15 K, 40000 kPa | 906.13 ± 0.4
323.15 K, 50000 kPa | 913.67 ± 0.41
323.15 K, 60000 kPa | 920.58 ± 0.43
325.65 K, 99 kPa | 866.06 ± 0.23
328.15 K, 99 kPa | 863.248 ± 0.23
328.15 K, 100 kPa | 863.25 ± 0.29
328.15 K, 2500 kPa | 866.05 ± 0.3
328.15 K, 5000 kPa | 868.91 ± 0.31
328.15 K, 7500 kPa | 871.68 ± 0.32
328.15 K, 10000 kPa | 874.38 ± 0.32
328.15 K, 20000 kPa | 884.36 ± 0.35
328.15 K, 30000 kPa | 893.38 ± 0.38
328.15 K, 40000 kPa | 901.61 ± 0.4
328.15 K, 50000 kPa | 909.29 ± 0.42
328.15 K, 60000 kPa | 916.43 ± 0.44
330.65 K, 99 kPa | 860.418 ± 0.23
333.15 K, 99 kPa | 857.577 ± 0.23
333.15 K, 100 kPa | 857.58 ± 0.29
333.15 K, 2500 kPa | 860.47 ± 0.3
333.15 K, 5000 kPa | 863.42 ± 0.31
333.15 K, 7500 kPa | 866.28 ± 0.32
333.15 K, 10000 kPa | 869.07 ± 0.33
333.15 K, 20000 kPa | 879.4 ± 0.36
333.15 K, 30000 kPa | 888.7 ± 0.38
333.15 K, 40000 kPa | 897.22 ± 0.41
333.15 K, 50000 kPa | 905.17 ± 0.43
333.15 K, 60000 kPa | 912.4 ± 0.44
335.65 K, 99 kPa | 854.721 ± 0.23
338.15 K, 99 kPa | 851.85 ± 0.24
338.15 K, 100 kPa | 851.85 ± 0.29
338.15 K, 2500 kPa | 854.88 ± 0.3
338.15 K, 5000 kPa | 857.96 ± 0.31
338.15 K, 7500 kPa | 860.93 ± 0.32
338.15 K, 10000 kPa | 863.81 ± 0.33
338.15 K, 20000 kPa | 874.45 ± 0.36
338.15 K, 30000 kPa | 884.02 ± 0.39
338.15 K, 40000 kPa | 892.61 ± 0.41
338.15 K, 50000 kPa | 900.74 ± 0.43
338.15 K, 60000 kPa | 908.17 ± 0.45

Conditions | kinematic viscosity [m2/s] | speed of sound [m/s] | surface tension liquid-gas [mN/m] | vapor or sublimation pressure [kPa]
313.15 K | 4.57e-07 ± 9.9e-09 | 1130.7 ± 1.5 | – | –
314.61 K | – | – | – | 14.8 ± 0.2
315.65 K | 4.5e-07 ± 9.7e-09 | 1121.2 ± 1.5 | 22.7 ± 0.21 | –
318.15 K | 4.4e-07 ± 9.5e-09 | 1109.5 ± 1.5 | 22.29 ± 0.21 | –
319.27 K | – | – | – | 18.09 ± 0.2
320.65 K | 4.3e-07 ± 9.3e-09 | 1100 ± 1.5 | 21.97 ± 0.21 | –
323.15 K | 4.23e-07 ± 9.2e-09 | 1088.5 ± 1.5 | 21.69 ± 0.21 | –
324.99 K | – | – | – | 22.86 ± 0.2
325.65 K | 4.12e-07 ± 8.9e-09 | 1078.7 ± 1.5 | 21.29 ± 0.2 | –
328.09 K | – | – | – | 26.07 ± 0.2
328.15 K | 4.03e-07 ± 8.7e-09 | 1067.6 ± 1.5 | 20.95 ± 0.2 | –
330.65 K | 3.95e-07 ± 8.6e-09 | 1057.5 ± 1.5 | 20.58 ± 0.2 | –
332.43 K | – | – | – | 30.95 ± 0.2
333.15 K | 3.89e-07 ± 8.4e-09 | 1046.9 ± 1.5 | 20.34 ± 0.2 | –
335.48 K | – | – | – | 34.85 ± 0.2
335.65 K | 3.8e-07 ± 8.2e-09 | 1036.2 ± 1.5 | 20.01 ± 0.2 | –
338.15 K | 3.72e-07 ± 8.1e-09 | 1029.2 ± 1.5 | 19.65 ± 0.2 | –
338.4 K | – | – | – | 38.81 ± 0.21
340.95 K | – | – | – | 42.52 ± 0.21
343.11 K | – | – | – | 46.09 ± 0.21
345.85 K | – | – | – | 50.77 ± 0.21
348.13 K | – | – | – | 55.05 ± 0.21
350.87 K | – | – | – | 60.51 ± 0.21
352.82 K | – | – | – | 64.61 ± 0.21
354.3 K | – | – | – | 68.12 ± 0.22
356.1 K | – | – | – | 72.15 ± 0.22
357.87 K | – | – | – | 76.61 ± 0.22
359.42 K | – | – | – | 80.63 ± 0.22
361.09 K | – | – | – | 85.02 ± 0.22
362.46 K | – | – | – | 88.86 ± 0.23
363.39 K | – | – | – | 91.39 ± 0.23
364.36 K | – | – | – | 94.28 ± 0.23
365.26 K | – | – | – | 97.05 ± 0.23
366.7 K | – | – | – | 101.33 ± 0.23
